Experiment: Cavity diagnosis testing under dental curing lamp with ImageJ image analysis
Design: species or system human
Description: Extracted teeth are obtained from School of Dentistry, University of Michigan (human subjects exempt) and stored in 1% sodium azide before use. The teeth are painted with an acid resistant varnish leaving a 1 mm 2 enamel window on the buccal surface of the crowns of the teeth. […] At the completion of the demineralization, the teeth are rinsed with distilled H2O before subjected to caries activity test. Residual varnish is removed by washing in acetone.
Teeth are exposed to 20 microliters of sample for three minutes prior to rinsing in DI water. Rinsing is done initially for 10 seconds, and teeth are examined and photographed while illuminated with a standard dental curing lamp. Rinsing is continued for an additional 10 seconds, followed by imaging, and this is repeated for up to 5 minutes to determine “residence times” for each sample to optimize the exposure procedure.
After a 3 minute exposure followed by 20 seconds of rinsing, imaging is performed under the dental curing lamp.
Digital images are taken with a Nikon ABC camera and analyzed using ImageJ image analysis software. In particular, the “mean gray value” measurement tool is used to compare grayscale brightness between the carious lesion and the background tooth as a measurement of contrast. […]

FITC-dextran
retention in carious lesions on rinsing in DI water (controls: rinse times of more than 20 seconds, cationic StNP: up to five minutes): fully washed away | illumination of carious lesions (statistical analysis of percent intensity difference) (versus untreated teeth / background tooth): did not illuminate carious lesions

Source: patent publication US12023388B2, “Detection and treatment of caries and microcavities with nanoparticles” (THE REGENTS OF THE UNIVERSITY OF MICHIGAN, priority 2015, dated 2024)
